Laboratory results published in patent publication US20200010814A1, “NOVEL MONOOXYGENASE AND UTILIZATION THEREOF” (KANEKA CORPORATION, priority 2017, published 2020).

Test system: pQAH1/pRAT1 Rhodococcus erythropolis L88
Assay: Evaluation of substrate specificity
Format: cell-based
Settings: 10 mM substrate, 5% glucose, 26 hours of reaction; NMR and optical rotation analyses
Experimental: pQAH1/pRAT1 Rhodococcus erythropolis L88 was cultured in an LB medium by a method similar to that for Example 5. Expression of a protein was induced with 0.2 μg/ml of thiostrepton, and then 10 mM of each of L-isovaline, D-isovaline, L-aminobutyrate, and D-aminobutyrate was added together with 5% glucose. After 26 hours of reaction, the reaction supernatant was analyzed by the LCMS analysis method used for Example 1.

Structure (SMILES)	product of the hydroxylation reaction of the substrate
CC[C@@H](N)C(=O)O [D-aminobutyrate]	D-allo-threonine
CC[C@@](C)(N)C(=O)O [D-isovaline]	(2R,3R)-2-methyl threonine
CC[C@H](N)C(=O)O [L-aminobutyrate]	L-allo-threonine
CC[C@](C)(N)C(=O)O [L-isovaline]	(2S,3S)-2-methyl threonine
